Assays:
[1] = biological target: T1, ASGP receptor (biotinylated ASGPR) (Homo sapiens, UniProt P07306); format: binding; conditions: SPR; Table 2; read-out: ASGPR SPR Binding KD
T1 construct: biotin (biotinylated)
T1 sequence (P07306 1-291): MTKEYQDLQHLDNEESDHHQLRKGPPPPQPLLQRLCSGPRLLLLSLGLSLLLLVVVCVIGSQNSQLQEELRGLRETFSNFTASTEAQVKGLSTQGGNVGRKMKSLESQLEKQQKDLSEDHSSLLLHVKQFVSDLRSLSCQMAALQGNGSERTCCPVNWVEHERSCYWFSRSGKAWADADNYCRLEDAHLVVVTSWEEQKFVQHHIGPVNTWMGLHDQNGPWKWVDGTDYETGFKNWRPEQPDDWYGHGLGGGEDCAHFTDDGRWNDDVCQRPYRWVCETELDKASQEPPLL

TNF = TNF (Homo sapiens, UniProt P01375); experiment: TNF FP Assay; format: binding; conditions: TNF 20 nM, 25° C., 2 hours
Method: TNF (20 nM) and test compound in 47 mM HEPES pH 6.5, 47 mM NaCl, 0.9 mM EDTA, 0.007% Triton X-100 were incubated at 25° C. for 2 hours. Fluorescence data was read with an Envision and plotted versus Compound concentration and fit to a single-site binding model.

TNF, sequence (P01375 77-233 limits assumed): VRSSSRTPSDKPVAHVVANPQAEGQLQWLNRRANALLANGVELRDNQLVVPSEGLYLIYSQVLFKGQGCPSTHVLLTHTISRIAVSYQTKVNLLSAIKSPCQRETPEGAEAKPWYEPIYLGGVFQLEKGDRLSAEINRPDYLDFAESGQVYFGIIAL

Structure (SMILES)	Kd [1] [nM]	IC50 (TNF; Table 2) [nM]	IC50 (TNF; Table 2, numeric bound) [nM]
O=C(CCOCC(COCCC(=O)NCCOCCOCCOCCOC[C@H]1OC[C@H](Nc2cncc(C(F)(F)F)n2)[C@@H](O)[C@H]1O)NCC(=O)N1CCN(Cc2ccc(-c3c[nH]c4ccncc34)c(OCCc3ccc(-c4cccc5ccncc45)cc3)c2)CC1)NCCOCCOCCOCCOC[C@H]1OC[C@H](Nc2cncc(C(F)(F)F)n2)[C@@H](O)[C@H]1O [compound 2]	< 100	> 1000	
O=C(COCCOCC(=O)N1CCN(Cc2ccc(-c3c[nH]c4ccncc34)c(OCCc3ccc(-c4cccc5ccncc45)cc3)c2)CC1)NC[C@H]1OC[C@H](Nc2cncc(C(F)(F)F)n2)[C@@H](O)[C@H]1O [compound 3]	< 100	< 100	
O=C(COc1ccc(CN2CCN(C[C@H]3OC[C@H](Nc4cncc(C(F)(F)F)n4)[C@@H](O)[C@H]3O)CC2)cc1)N1CCN(Cc2ccc(-c3c[nH]c4ccncc34)c(OCCc3ccc(-c4cccc5ccncc45)cc3)c2)CC1 [compound 4]	< 100		> 112
O=C(COCCOCCOCCOCCOCC(=O)N1CCN(Cc2ccc(-c3c[nH]c4ccncc34)c(OCCc3ccc(-c4cccc5ccncc45)cc3)c2)CC1)NC[C@H]1OC[C@H](Nc2cncc(C(F)(F)F)n2)[C@@H](O)[C@H]1O [compound 7]	< 100	< 100	
O=C(NC[C@H]1OC[C@H](Nc2cncc(C(F)(F)F)n2)[C@@H](O)[C@H]1O)N1CCN(Cc2ccc(-c3c[nH]c4ccncc34)c(OCCc3ccc(-c4cccc5ccncc45)cc3)c2)CC1 [compound 8]	< 100	> 1000	
O=C(CCOCC(COCCC(=O)NCCOCCOCCOCCOC[C@H]1OC[C@H](Nc2cncc(C(F)(F)F)n2)[C@@H](O)[C@H]1O)NC(=O)COCCOCCOCC(=O)N1CCN(Cc2ccc(-c3c[nH]c4ccncc34)c(OCCc3ccc(-c4cccc5ccncc45)cc3)c2)CC1)NCCOCCOCCOCCOC[C@H]1OC[C@H](Nc2cncc(C(F)(F)F)n2)[C@@H](O)[C@H]1O [compound 9]	< 100	> 1000	
CC1(C)C(=O)c2ccc(-c3cnc(N4CCN5C(=O)N(CCOCCNC(=O)CNC[C@H]6OC[C@H](Nc7cncc(C(F)(F)F)n7)[C@@H](O)[C@H]6O)C[C@@H]5C4)nc3)nc2N1Cc1cccnc1C#N [compound 10]	< 100	> 1000	
CC1(C)C(=O)c2ccc(-c3cnc(N4CCN5C(=O)N(CCCNC(=O)CCN6CCN(CC(=O)NC[C@H]7OC[C@H](Nc8cncc(C(F)(F)F)n8)[C@@H](O)[C@H]7O)CC6)C[C@@H]5C4)nc3)nc2N1Cc1cccnc1C#N [compound 11]	< 100	100 to 500	
CC1(C)C(=O)c2ccc(-c3cnc(N4CCN5C(=O)N(CCCNC(=O)COc6ccc(CN7CCN(C[C@H]8OC[C@H](Nc9cncc(C(F)(F)F)n9)[C@@H](O)[C@H]8O)CC7)cc6)C[C@@H]5C4)nc3)nc2N1Cc1cccnc1C#N [compound 12]	< 100	100 to 500	
CC1(C)C(=O)c2ccc(-c3cnc(N4CCN5C(=O)N(CCCNC(=O)c6ccc(C(=O)NC[C@H]7OC[C@H](Nc8cncc(C(F)(F)F)n8)[C@@H](O)[C@H]7O)cc6)C[C@@H]5C4)nc3)nc2N1Cc1cccnc1C#N [compound 13]	< 100	> 1000	
CC1(C)C(=O)c2ccc(-c3cnc(N4CCN5C(=O)N(CCCNC(=O)CNC[C@H]6OC[C@H](Nc7cncc(C(F)(F)F)n7)[C@@H](O)[C@H]6O)C[C@@H]5C4)nc3)nc2N1Cc1cccnc1C#N [compound 14]	< 100	100 to 500	
CC1(C)C(=O)c2ccc(-c3cnc(N4CCN5C(=O)N(CCCNC(=O)[C@H]6CC[C@H](C(=O)NC[C@H]7OC[C@H](Nc8cncc(C(F)(F)F)n8)[C@@H](O)[C@H]7O)CC6)C[C@@H]5C4)nc3)nc2N1Cc1cccnc1C#N [compound 15]	< 100	> 1000	
CC1(C)C(=O)c2ccc(-c3cnc(N4CCN5C(=O)N(CCCNC(=O)COc6cccc(CC(=O)NC[C@H]7OC[C@H](Nc8cncc(C(F)(F)F)n8)[C@@H](O)[C@H]7O)c6)C[C@@H]5C4)nc3)nc2N1Cc1cccnc1C#N [compound 16]	< 100	> 1000	
CC1(C)C(=O)c2ccc(-c3cnc(N4CCN5C(=O)N(CCOCCNC(=O)[C@H]6CC[C@H](C(=O)NC[C@H]7OC[C@H](Nc8cncc(C(F)(F)F)n8)[C@@H](O)[C@H]7O)CC6)C[C@@H]5C4)nc3)nc2N1Cc1cccnc1C#N [compound 17]	< 100	500 to 1000	
